Experimental findings from ChEMBL document CHEMBL3217612, “Progress on lamellarins” (Medchemcomm, 2011) are described below.

Bounds are passed on as bounds.

One assay concerns KB. Briefly: Cytotoxicity against human KB cells after 48 hrs by XTT assay. Type of assay: functional, cell-based. In general terms: Tetrazolium dyes change colour on reduction, which living cells bring about.
For a further assay, the system named is HL-60. Briefly: Cytotoxicity against human HL60 cells after 48 hrs by XTT assay. Type of assay: functional, cell-based. As to conditions: HL-60, 48 h.
Another assay deals with T47D. Briefly: Cytotoxicity against human T47D cells after 48 hrs by XTT assay. Type of assay: functional, cell-based.
The subject of the next assay is MRC5. The assay is described as follows: Cytotoxicity against human MRC5 cells after 48 hrs by XTT assay. As to conditions: MRC5, 48 h. The format is cell-based.
The nature of assay [1]: Cytotoxicity against human HCC-S102 cells after 48 hrs by XTT assay. The format is functional, cell-based. The following applies: HCC-S102, 48 h.
The next assay deals with HepG2. The assay is described as follows: Cytotoxicity against human HepG2 cells after 48 hrs by XTT assay. As to conditions: HepG2, 48 h. Type of assay: functional, cell-based.
The subject of another assay is P388. The assay is described as follows: Cytotoxicity against mouse P388 cells after 48 hrs by XTT assay. As to conditions: P388, 48 h. The format is functional, cell-based.
Assay [2] can be described thus: Cytotoxicity against human HuCCa1 cells after 48 hrs by XTT assay. The format is functional, cell-based. The following applies: HuCC-A1, 48 h.
The test system of the next assay is HeLa. Briefly: Cytotoxicity against human HeLa cells after 48 hrs by XTT assay. The format is functional, cell-based.
The subject of another assay is MDA-MB-231. Briefly: Cytotoxicity against human MDA-MB-231 cells after 48 hrs by XTT assay. As to conditions: MDA-MB-231, 48 h. The format is functional, cell-based.
The next assay deals with H69AR. Briefly: Cytotoxicity against human H69AR cells after 48 hrs by XTT assay. Type of assay: functional, cell-based.
The subject of a further assay is A549. The assay is described as follows: Cytotoxicity against human A549 cells after 48 hrs by XTT assay. Type of assay: functional, cell-based. The following applies: A549, 48 h.
Assay [3] can be described thus: Cytotoxicity against human MOLT3 cells after 48 hrs by XTT assay. Type of assay: functional, cell-based. As to conditions: MOLT-3, 48 h.

As usually defined, the IC50 is the concentration needed to halve the response being measured. A lower IC50 goes with inhibition by little substance. `COc1ccc(-c2c3c4cc(OC)c(O)cc4oc(=O)c3n3ccc4cc(O)c(OC)cc4c23)cc1O`: the half-maximal inhibitory concentration (IC50) in the assay on KB is 60 nM; in the assay on HL-60 it was 40 nM; in the assay with T47D it was 0.6 nM; with MRC5, greater than 100 µM; in assay [1], 2300 nM; with HepG2, 20 nM. Also, the IC50 came to 80 nM with P388; 8 nM in assay [2]; 40 nM with HeLa; 600 nM in the assay with MDA-MB-231; 60 nM in the assay with H69AR; 40 nM with A549.
Consider `COc1cc(-c2c3c4cc(OC)c(O)cc4oc(=O)c3n3ccc4c(O)c(OC)c(OC)cc4c23)ccc1O`, for which the concentration for half-maximal inhibition (IC50) worked out at 200 nM in the assay with KB; 60 nM with HL-60; 9 nM with T47D; 13.4 µM in the assay with MRC5; 1900 nM in assay [1]; 20 nM in the assay with HepG2. Further, the IC50 in the assay on P388 worked out at 100 nM; in assay [2] it was 60 nM; in the assay on HeLa, 300 nM; with MDA-MB-231, 100 nM; with H69AR, 300 nM; in the assay with A549 it was 40 nM.
Regarding `COc1cc(-c2c3c4cc(OC)c(O)cc4[nH]c(=O)c3n3ccc4cc(O)c(OC)cc4c23)ccc1O`, the IC50 with HepG2 is 130 nM; in [2], 120 nM; in [3], 30 nM; with A549 it was 740 nM.
`COc1ccc(-c2c3c4cc(OC)c(O)cc4oc(=O)c3n3ccc4c(O)c(OC)c(OC)cc4c23)cc1O`: the IC50 worked out at 80 nM in the assay on KB; 200 nM in the assay on HL-60; 6 nM in the assay on T47D; 10.1 µM in the assay on MRC5; 1600 nM in assay [1]; 200 nM with HepG2. Also, the IC50 in the assay on P388 was 300 nM; in [2], 40 nM; in the assay on HeLa, 90 nM; in the assay with MDA-MB-231 it was 80 nM; in the assay with H69AR, 300 nM; in the assay with A549, 300 nM.
Regarding `COc1cc2c(cc1O)oc(=O)c1c2c(-c2ccc(OC)c(OC)c2)c2c3cc(OC)c(OC)c(O)c3ccn21`, the IC50 was 300 nM in the assay on KB; 100 nM with HL-60; 6 nM in the assay on T47D; 25.8 µM with MRC5; 2100 nM in assay [1]; 100 nM in the assay on HepG2. The concentration for half-maximal inhibition (IC50) with P388 stood at 300 nM; in [2], 70 nM; in the assay on HeLa, 300 nM; in the assay on MDA-MB-231, 300 nM; in the assay with H69AR, 2300 nM; in the assay with A549 it was 300 nM.
On to `COc1cc(-c2c3c4cc(OC)c(O)cc4oc(=O)c3n3ccc4cc(O)c(OC)cc4c23)ccc1O` [LAMELLARIN D], for which the IC50 in the assay with KB was found to be 40 nM; in the assay with HL-60, 40 nM; in the assay with T47D it was 0.08 nM; in the assay with MRC5 it was 9.2 µM; in assay [1], 3200 nM; in the assay with HepG2, 20 nM. Further, the IC50 with P388 amounted to 100 nM; in assay [2] it was 80 nM; in the assay on HeLa, 60 nM; in [3], 49 nM; with MDA-MB-231, 400 nM; in the assay with H69AR, 400 nM. The same molecule returned an IC50 in the assay on A549 of 60 nM.
Turning to `COc1cc2c(cc1O)oc(=O)c1c2c(-c2ccc(OC)c(OC)c2)c2c3cc(OC)c(O)cc3ccn21`, the IC50 with KB is 80 nM; in the assay with HL-60, 40 nM; in the assay on T47D, 0.1 nM; in the assay with MRC5, greater than 97.4 µM; in assay [1], 2100 nM; in the assay on HepG2, 10 nM. Moreover, the IC50 with P388 came out at 80 nM; in assay [2], 6 nM; in the assay on HeLa, 80 nM; in the assay with MDA-MB-231, 400 nM; in the assay on H69AR, 300 nM; in the assay with A549 it was 40 nM.
